Tests used:
[1] = system: U87MG human glioblastoma xenografts; test: U87MG human glioblastoma xenograft, tumor growth delay, 49-day study (Example 2);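 note: female athymic nude mice with subcutaneous tumors, groups of ten, tumors measured twice weekly, endpoint at 2000 mm^3 tumor volume or Day 49, treated compared with control mice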
Method: The experiment consisted of groups (n=10) of female athymic nude mice bearing subcutaneous U87MG xenografts (75-144 mm^3) on Day 1. Candesartan was evaluated as monotherapies at dosages of 1, 5, 10 and 50 mg/kg administered intraperitoneally (i.p.) on a once daily for twenty-one days (qd×21) schedule. […] Dosing was initiated on Day 1, and tumors were measured twice each week until the study was ended on Day 49. Animals were monitored individually and each mouse was euthanized for endpoint when its tumor attained a volume of 2000 mm^3 (about 2 grams) or on the final day (Day 49), whichever came first. Tumor samples were collected at endpoint, and histopathology analyses were performed.
The time to endpoint (TTE) was calculated for each mouse. Treatment outcome was determined from percent tumor growth delay (% TGD), defined as the percent increase in median TTE of treated versus control mice, with differences in the TTE values between groups deemed statistically significant at P 0.05 using logrank survival analysis. Animals were also monitored for partial regression (PR) and complete regression (CR) responses. Treatment tolerability was assessed by body weight measurements and frequent observation for signs of treatment-related (TR) toxicity.
Treatment response was determined from an analysis of percent tumor growth delay (% TGD), defined as the percent increase in the median time to endpoint (TTE) in treated versus control mice; by logrank significance of differences in survival among treatment groups; and by regression responses. Plots of group mean tumor growth were also considered. Treatment tolerability was assessed by body weight measurements and frequent observation for clinical symptoms of treatment-related (TR) side effects.
Xenografts were initiated with U87MG human glioblastomas (Piedmont Research Center, Morrisville, N.C.) by serial subcutaneous transplantation in athymic nude mice. Each test mouse received a U87MG tumor fragment (1 mm^3) implanted subcutaneously in the right flank, and the growth of tumors was monitored as the average size approached the target range of 80 to 120 mm^3. […] Tumor volume was calculated using the formula: Tumor Volume (mm^3)=w^2×l/2 where w=width and l=length in mm of a U87MG tumor. Tumor weight may be estimated with the assumption that 1 mg is equivalent to 1 mm^3 of tumor volume. Therapeutic Agents
Doses of valsartan and candesartan were each formulated weekly, and were stored at 4° C. Valsartan dosing solutions were formulated at concentrations of 15 and 3 mg/mL to yield the desired 150 and 30 mg/kg dosages, respectively, in a dosing volume of 0.2 mL per 20 grams body weight (10 mL/kg). The required amount of valsartan powder for the 15 mg/mL solution was suspended in sterile saline, then dissolved with 0.1 N NaOH and pH adjusted to 7.4 with 0.1 N HCl. The 3 mg/mL valsartan dosing solution was prepared by diluting an aliquot of the 15 mg/mL valsartan solution with sterile saline. Candesartan doses were formulated in 0.5% carboxymethyl cellulose (CMC) in deionized water at concentrations of 5, 1, 0.5 and 0.1 mg/mL to yield the desired 50, 10, 5 and 1 mg/kg dosages, respectively, in a dosing volume of 10 mL/kg.
Each test agent was administered intraperitoneally (i.p.) once daily for twenty-one days (qd×21), unless otherwise indicated.
Group 1 was not treated and served as the control group for calculation of % TGD. […] Groups 4-7 received candesartan at 50, 10, 5 or 1 mg/kg, respectively. […] All doses were scaled to the body weights of the individual animals.
Tumors were measured twice each week using calipers.

U87MG tumor fragments = test: animal or person; details: for combination effect with temozolomide (median group tumor burden at Day 36): dosed in combination with 5 mg/kg temozolomide, FIG. 19
Method: HRLN female nu/nu mice were seeded with 1 mm^3 U87MG tumor fragments subcutaneously in the flank. Final caliper and body weight measurements were taken on the last day of the study.
All animals were assessed periodically for body weight, as well as tumor burden, using standard protocols with mechanical calipers. […] Dosing was stopped for any group with two measurements of mean body weight loss of greater than 20%. The group was not euthanized, and recovery was allowed. Within a group with greater than 20% weight loss, individuals reaching the individual body weight loss endpoint were euthanized. If the group body weight loss was recovered, dosing may resume. […] Dosing was then resumed with the candidate agent at half the original dose. Animals were monitored as a group. The endpoint of the experiment was a mean tumor weight in control group (or group 1) of 2000 mm^3 or 60 days, whichever comes first. When the endpoint was reached, all the animals were euthanized.

[2] = Group 4: candesartan 50 mg/kg ip qd x 21
[3] = Group 5: candesartan 10 mg/kg ip qd x 21
[4] = Group 6: candesartan 5 mg/kg ip qd x 21
[5] = Group 7: candesartan 1 mg/kg ip qd x 21
[6] = combination: temozolomide 5 po qd x 5 + agent qd x 30 (doses as under E7)
[7] = combination: temozolomide 5 po qd x 5 + agent qd x 30 (doses as under E7), number of animals

Compound: CCOc1nc2cccc(C(=O)OC(C)OC(=O)OC3CCCCC3)c2n1Cc1ccc(-c2ccccc2-c2nn[nH]n2)cc1 (stereo not drawn) [Candesartan, candesartan cilexetil]
- % TGD (vs Group 1) [1, 2]: 9%
- Deaths NTR [1, 2]: 0
- Deaths TR [1, 2]: 0
- MTV (n) Day 49 [1, 2]: 1 (1) mm^3
- Median TTE [1, 2]: 12.7 days
- Regressions CR [1, 2]: 1
- Regressions PR [1, 2]: 0
- Regressions TFS [1, 2]: 1
- T − C (TGD vs Group 1) [1, 2]: 1.1 days
- % TGD (vs Group 1) [1, 3]: 20%
- Deaths NTR [1, 3]: 0
- Deaths TR [1, 3]: 0
- Median TTE [1, 3]: 13.9 days
- Regressions CR [1, 3]: 0
- Regressions PR [1, 3]: 0
- Regressions TFS [1, 3]: 0
- T − C (TGD vs Group 1) [1, 3]: 2.3 days
- % TGD (vs Group 1) [1, 4]: 16%
- Deaths NTR [1, 4]: 0
- Deaths TR [1, 4]: 0
- Median TTE [1, 4]: 13.5 days
- Regressions CR [1, 4]: 0
- Regressions PR [1, 4]: 0
- Regressions TFS [1, 4]: 0
- T − C (TGD vs Group 1) [1, 4]: 1.9 days
- % TGD (vs Group 1) [1, 5]: 7%
- Deaths TR [1, 5]: 0
- Median TTE [1, 5]: 12.4 days
- Regressions CR [1, 5]: 0
- Regressions PR [1, 5]: 0
- Regressions TFS [1, 5]: 0
- T − C (TGD vs Group 1) [1, 5]: 0.8 days
- Deaths NTR ([1]; Group 7: candesartan 1 mg/kg ip qd x 21, accidental death on Day 5): 1
- efficacy conclusion ([1]; candesartan monotherapy 1, 5, 10, 50 mg/kg i.p. qd×21): not efficacious as monotherapy
- MTV(n) Day 29 (median tumor volume) (U87MG tumor fragments; combination: temozolomide 5 po qd x 5 + agent qd x 30 (Candesartan 10 ip, Valsartan 30 ip, Carvedilol 200 po, Irbesartan 100 po, Amlodipine 10 ip, Clonidine 1 ip, Olmesartan 10 po, Ramipril 5 po, Enalapril 5 ip, Benazepril 10 ip, Quinapril 15 po, Aliskiren 50 ip, Guanabenz 1 ip, Diltiazem 20 po, Lercanidipine 3 po, Labetalol 10 sc)): 32 (8) mm^3
- Deaths NTR (non-treatment-related death) (U87MG tumor fragments; [6]): 0
- Deaths TR (treatment-related death) (U87MG tumor fragments; [6]): 0
- Mean BW Nadir, day of nadir (U87MG tumor fragments; [6]): Day 3
- Regression CR (complete regression) (U87MG tumor fragments; [7]): 0
- Regression PR (partial regression) (U87MG tumor fragments; [7]): 6
- % TGI (percent tumor growth inhibition, compared to Group 1) (U87MG tumor fragments; combination: temozolomide 5 po qd x 5 + agent qd x 30 (doses as under E7), vs Group 1 temozolomide 5 alone): 92%

Compound: COc1ccccc1OCCNCC(O)COc1cccc2[nH]c3ccccc3c12 (stereo not drawn) [Carvedilol]
- Deaths NTR (non-treatment-related death) (U87MG tumor fragments; [6]): 0
- Deaths TR (treatment-related death) (U87MG tumor fragments; [6]): 0

Compound: Clc1cccc(Cl)c1N=C1NCCN1 [Clonidine]
- Deaths NTR (non-treatment-related death) (U87MG tumor fragments; [6]): 0
- Deaths TR (treatment-related death) (U87MG tumor fragments; [6]): 0
- Mean BW Nadir, day of nadir (U87MG tumor fragments; [6]): Day 3

Compound: CCOC(=O)[C@H](CCc1ccccc1)N[C@@H](C)C(=O)N1CCC[C@H]1C(=O)O [Enalapril]
- Deaths NTR (non-treatment-related death) (U87MG tumor fragments; [6]): 0
- Deaths TR (treatment-related death) (U87MG tumor fragments; [6]): 0

Compound: N=C(N)N/N=C/c1c(Cl)cccc1Cl [Guanabenz]
- Deaths NTR (non-treatment-related death) (U87MG tumor fragments; [6]): 0
- Deaths TR (treatment-related death) (U87MG tumor fragments; [6]): 0

Compound: CC(CCc1ccccc1)NCC(O)c1ccc(O)c(C(N)=O)c1 (stereo not drawn) [Labetalol]
- Deaths NTR (non-treatment-related death) (U87MG tumor fragments; [6]): 0
- Deaths TR (treatment-related death) (U87MG tumor fragments; [6]): 0

Compound: COCCCOc1cc(C[C@@H](C[C@H](N)[C@@H](O)C[C@H](C(=O)NCC(C)(C)C(N)=O)C(C)C)C(C)C)ccc1OC [aliskerin, aliskiren]
- Deaths NTR (non-treatment-related death) (U87MG tumor fragments; [6]): 0
- Deaths TR (treatment-related death) (U87MG tumor fragments; [6]): 0

Compound: CCOC(=O)C1=C(COCCN)NC(C)=C(C(=O)OC)C1c1ccccc1Cl (stereo not drawn) [amlodipine]
- Deaths NTR (non-treatment-related death) (U87MG tumor fragments; [6]): 1
- Deaths TR (treatment-related death) (U87MG tumor fragments; [6]): 0
- Mean BW Nadir, day of nadir (U87MG tumor fragments; [6]): Day 3

Compound: CCOC(=O)[C@H](CCc1ccccc1)N[C@H]1CCc2ccccc2N(CC(=O)O)C1=O [benazepril]
- Deaths NTR (non-treatment-related death) (U87MG tumor fragments; [6]): 1
- Deaths TR (treatment-related death) (U87MG tumor fragments; [6]): 0
- combination effect with temozolomide (median group tumor burden at Day 36) (U87MG tumor fragments): next in rank-order potency

Compound: COc1ccc([C@@H]2Sc3ccccc3N(CCN(C)C)C(=O)[C@@H]2OC(C)=O)cc1 [diltiazem]
- Deaths NTR (non-treatment-related death) (U87MG tumor fragments; [6]): 0
- Deaths TR (treatment-related death) (U87MG tumor fragments; [6]): 0
- combination effect with temozolomide (median group tumor burden at Day 36) (U87MG tumor fragments): modest combination effects

Compound: CCCCC1=NC2(CCCC2)C(=O)N1Cc1ccc(-c2ccccc2-c2nnn[nH]2)cc1 [irbesartan]
- Deaths NTR (non-treatment-related death) (U87MG tumor fragments; [6]): 0
- Deaths TR (treatment-related death) (U87MG tumor fragments; [6]): 0
- Mean BW Nadir, day of nadir (U87MG tumor fragments; [6]): Day 3

Compound: COC(=O)C1=C(C)NC(C)=C(C(=O)OC(C)(C)CN(C)CCC(c2ccccc2)c2ccccc2)C1c1cccc([N+](=O)[O-])c1 (stereo not drawn) [lercanidipine]
- combination effect with temozolomide (median group tumor burden at Day 36) (U87MG tumor fragments): modest combination effects

Compound: CCCc1nc(C(C)(C)O)c(C(=O)O)n1Cc1ccc(-c2ccccc2-c2nnn[nH]2)cc1 [olmesartan]
- Mean BW Nadir, day of nadir (U87MG tumor fragments; [6]): Day 3

Compound: CCOC(=O)[C@H](CCc1ccccc1)N[C@@H](C)C(=O)N1Cc2ccccc2C[C@H]1C(=O)O [quinapril]
- Deaths NTR (non-treatment-related death) (U87MG tumor fragments; [6]): 0
- Deaths TR (treatment-related death) (U87MG tumor fragments; [6]): 0
- Mean BW Nadir, day of nadir (U87MG tumor fragments; [6]): Day 3
- combination effect with temozolomide (median group tumor burden at Day 36) (U87MG tumor fragments): next in rank-order potency

Compound: CCOC(=O)[C@H](CCc1ccccc1)N[C@@H](C)C(=O)N1[C@H](C(=O)O)C[C@@H]2CCC[C@@H]21 [ramipril]
- Deaths NTR (non-treatment-related death) (U87MG tumor fragments; [6]): 0
- Deaths TR (treatment-related death) (U87MG tumor fragments; [6]): 0
- Mean BW Nadir, day of nadir (U87MG tumor fragments; [6]): Day 3
- combination effect with temozolomide (median group tumor burden at Day 36) (U87MG tumor fragments): next in rank-order potency

Compound: CCCCC(=O)N(Cc1ccc(-c2ccccc2-c2nnn[nH]2)cc1)[C@H](C(=O)O)C(C)C [valsartan]
- Deaths NTR (non-treatment-related death) (U87MG tumor fragments; [6]): 0
- Deaths TR (treatment-related death) (U87MG tumor fragments; [6]): 0
